Assay [1] addresses T1, Human Thyroid Hormone Receptor β1 (TRβ1) (Homo sapiens, UniProt P10828).
T1 construct: expressed in transfected cells; host or cells: 293T cells
T1 sequence (P10828 1-461): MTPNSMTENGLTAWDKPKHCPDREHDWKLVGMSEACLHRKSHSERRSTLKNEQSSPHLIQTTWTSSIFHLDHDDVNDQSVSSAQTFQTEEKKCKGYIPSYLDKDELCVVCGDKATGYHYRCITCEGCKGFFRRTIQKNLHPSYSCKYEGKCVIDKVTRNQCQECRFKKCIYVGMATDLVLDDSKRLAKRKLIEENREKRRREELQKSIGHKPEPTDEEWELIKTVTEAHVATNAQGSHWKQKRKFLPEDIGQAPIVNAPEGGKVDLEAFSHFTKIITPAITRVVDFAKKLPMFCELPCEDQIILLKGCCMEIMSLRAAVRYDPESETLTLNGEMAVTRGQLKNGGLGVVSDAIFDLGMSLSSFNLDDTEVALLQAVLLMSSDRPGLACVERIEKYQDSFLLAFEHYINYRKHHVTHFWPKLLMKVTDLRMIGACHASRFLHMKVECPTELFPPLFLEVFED
Put plainly: Transcription activation test of human thyroid hormone receptor β1 (luciferase reporter in 293T cells). The class given is cell-based. The settings on record: EC50 of transcription activation on TRβ1, 293T cells, luciferase activity after 24 hr; read-out: TRβ. The source says: (§1) Transcription Activation Test of Human Thyroid Hormone Receptors α1 (TRα1) and β1 (TRβ1)
(§2) pcDNA3.1 vector (manufactured by Invitrogen) that expresses TRα1 or β1 cloned from human liver-derived cells, and firefly luciferase expression vector pDR4-LuC (manufactured by Stratagene) having a thyroid hormone response sequence to be a reporter were transfected into 293T cells cultured in Dulbecco's modified Eagle medium (DMEM) containing 10% of activated carbon/dextran-treated fetal bovine serum (FBS) by using Lipofectamine2000 (manufactured by Invitrogen). After 16 hr, the cells were plated again in a 96 well plate, and the medium was exchanged with DMEM containing 0.1% activated carbon/dextran-treated FBS. After 3 more hr, a compound diluted with dimethyl sulfoxide solution was added, and the luciferase activity after 24 hr was measured.
(§3) As a positive control, 3,3′,5-triiodo-L-thyronine (T3), which is a biological ligand, was used. The transcription activation action of the compound on TRα1 and TRβ1 was shown by each EC50 value and the maximum luciferase activity value relative to the maximum luciferase activity value of T3 as 100.
A general note: Reporter assays use an easily measured gene product as a stand-in for the process of interest.

The target in assay [2] is T2, Human Thyroid Hormone Receptor α1 (TRα1) (Homo sapiens, UniProt P10827).
T2 construct: expressed in transfected cells; host or cells: 293T cells
T2 sequence (P10827 1-410 isoform P10827-2): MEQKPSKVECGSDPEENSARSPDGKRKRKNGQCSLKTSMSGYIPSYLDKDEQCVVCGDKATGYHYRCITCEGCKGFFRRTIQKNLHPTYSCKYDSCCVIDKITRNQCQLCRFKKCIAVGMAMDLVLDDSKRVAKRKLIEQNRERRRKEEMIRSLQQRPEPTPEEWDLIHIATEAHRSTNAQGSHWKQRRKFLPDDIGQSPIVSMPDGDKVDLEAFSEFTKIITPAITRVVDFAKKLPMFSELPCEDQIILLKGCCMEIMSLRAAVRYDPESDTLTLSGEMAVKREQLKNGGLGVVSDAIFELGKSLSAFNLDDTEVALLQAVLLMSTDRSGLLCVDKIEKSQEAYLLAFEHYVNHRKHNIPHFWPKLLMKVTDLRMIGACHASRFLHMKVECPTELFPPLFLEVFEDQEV
The experiment in a line: Transcription activation test of human thyroid hormone receptor α1 (luciferase reporter in 293T cells). The settings on record: ratio TRα/TRβ of the transcription activation EC50 values. The class given is cell-based.
Excerpt: as §1, §2, §3

The values below come from patent publication US8791266B2, “Thyroid hormone β receptor agonist” (Mitsubishi Tanabe Pharma Corporation, priority 2009, dated 2014).

Consider `Cc1cc(NC(=O)CC(=O)O)c(C)c(C)c1Cc1ccc(O)c(C2CCCCC2)n1` [Example 24, 3-({4-[(6-cyclohexyl-5-hydroxypyridin-2-yl)methyl]-2,3,5-trimethylphenyl}amino)-3-oxopropanoic acid], for which, in assay [1], the EC50 turned out to be 30 nM. Also, the “selectivity (TRα/TRβ)” value in assay [2] is “B (2<(TRα/TRβ)<5)”.

In the case of `Cc1cc(OC(C)(C)C(=O)O)c(C)c(C)c1Cc1ccc(O)c(C2CCCCC2)n1` [Example 17, 2-{4-[(6-cyclohexyl-5-hydroxypyridin-2-yl)methyl]-2,3,5-trimethylphenoxy}-2-methylpropanoic acid], the EC50 in assay [1] was 20 nM. Besides, the “selectivity (TRα/TRβ)” value in assay [2] is on record as “B (2<(TRα/TRβ)<5)”.

On to `Cc1cc(-c2cc(O)no2)c(C)c(C)c1Cc1ccc(O)c(C(C)C)n1` [Example 81, 6-[4-(3-hydroxyisoxazol-5-yl)-2,3,6-trimethylbenzyl]-2-isopropylpyridin-3-ol], for which the EC50 in assay [1] turned out to be 0.1 nM. In addition, the “selectivity (TRα/TRβ)” value in assay [2] is given as “B (2<(TRα/TRβ)<5)”.

As for `Cc1cc(OCC(=O)O)c(C)c(C)c1Oc1ccc(O)c(C2CCCCC2)n1` [Example 10, {4-[(6-cyclohexyl-5-hydroxypyridin-2-yl)oxy]-2,3,5-trimethylphenoxy}acetic acid], the EC50 in assay [1] came out at 30 nM. In addition, the “selectivity (TRα/TRβ)” value in assay [2] is on record as “B (2<(TRα/TRβ)<5)”.

For the compound `Cc1cc(OCC(=O)O)c(C)c(C)c1Cc1ccc(O)c(C(C)C)n1` [Example 4, {4-[(5-hydroxy-6-isopropylpyridin-2-yl)methyl]-2,3,5-trimethylphenoxy}acetic acid], in assay [1], the EC50 amounted to 0.5 nM. In addition, the “selectivity (TRα/TRβ)” value in assay [2] is recorded as “B (2<(TRα/TRβ)<5)”.

Turning to `Cc1cc(OCC(=O)O)c(C)c(C)c1Oc1ccc(O)c(C(C)C)n1` [Example 9, {4-[(5-hydroxy-6-isopropylpyridin-2-yl)oxy]-2,3,5-trimethylphenoxy}acetic acid], the EC50 in assay [1] is 7 nM. In addition, the “selectivity (TRα/TRβ)” value in assay [2] is listed as “C (2>(TRα/TRβ))”.

Turning to `Cc1cc(OCc2noc(=O)[nH]2)cc(C)c1Cc1ccc(O)c(C2CCCCC2)n1` [Example 28, 3-({4-[(6-cyclohexyl-5-hydroxypyridin-2-yl)methyl]-3,5-dimethylphenoxy}methyl)-1,2,4-oxadiazol-5(4H)-one], the EC50 in assay [1] worked out at 0.2 nM. Besides, in assay [2], the “selectivity (TRα/TRβ)” value is given as “C (2>(TRα/TRβ))”.

As to `Cc1cc(OC2(C(=O)O)CC2)cc(C)c1Cc1ccc(O)c(C2CCCCC2)n1` [Example 18, 1-{4-[(6-cyclohexyl-5-hydroxypyridin-2-yl)methyl]-3,5-dimethylphenoxy}cyclopropanecarboxylic acid], in assay [1], the EC50 was 2000 nM. Also, the “selectivity (TRα/TRβ)” value in assay [2] is given as “C (2>(TRα/TRβ))”.

In the case of `Cc1cc(CC(=O)O)c(C)c(C)c1Cc1ccc(O)c(C2CCCCC2)n1` [Example 41, {4-[(6-cyclohexyl-5-hydroxypyridin-2-yl)methyl]-2,3,5-trimethylphenyl}acetic acid], in assay [1], the EC50 was found to be 4 nM. Moreover, the “selectivity (TRα/TRβ)” value in assay [2] is “B (2<(TRα/TRβ)<5)”.

Turning to `Cc1cc(OCC(=O)O)c(C#N)c(C)c1Cc1ccc(O)c(C2CCCCC2)n1` [Example 44, {2-cyano-4-[(6-cyclohexyl-5-hydroxypyridin-2-yl)methyl]-3,5-dimethylphenoxy}acetic acid], in assay [1], the EC50 came out at 200 nM. The “selectivity (TRα/TRβ)” value in assay [2] was “B (2<(TRα/TRβ)<5)”.

With `Cc1cc(C(=O)O)c(C)c(C)c1Cc1ccc(O)c(C2CCCCC2)n1` [Example 42, 4-[(6-cyclohexyl-5-hydroxypyridin-2-yl)methyl]-2,3,5-trimethylbenzoic acid], the EC50 in assay [1] was determined as 300 nM. For the same compound, in assay [2], the “selectivity (TRα/TRβ)” value was “B (2<(TRα/TRβ)<5)”.

With `Cc1cc(OCc2noc(=O)[nH]2)c(C)c(C)c1Cc1ccc(O)c(C2CCCC2)n1` [Example 32, 3-({4-[(6-cyclopentyl-5-hydroxypyridin-2-yl)methyl]-2,3,5-trimethylphenoxy}methyl)-1,2,4-oxadiazol-5(4H)-one], the EC50 in assay [1] came out at 0.4 nM. Further, in assay [2], the “selectivity (TRα/TRβ)” value is “B (2<(TRα/TRβ)<5)”.

For `Cc1cc(OCC(=O)O)cc(C)c1Cc1ccc(O)c(C2CCCCC2)n1` [Example 2, {4-[(6-cyclohexyl-5-hydroxypyridin-2-yl)methyl]-3,5-dimethylphenoxy}acetic acid], in assay [1], the EC50 came out at 2 nM. The “selectivity (TRα/TRβ)” value in assay [2] was “B (2<(TRα/TRβ)<5)”.

As for `Cc1cc(C(=O)NCC(=O)O)cc(C)c1Cc1ccc(O)c(C2CCCCC2)n1` [Example 64, N-{4-[(6-cyclohexyl-5-hydroxypyridin-2-yl)methyl]-3,5-dimethylbenzoyl}glycine], in assay [1], the EC50 stood at 80 nM. Besides, in assay [2], the “selectivity (TRα/TRβ)” value is given as “B (2<(TRα/TRβ)<5)”.

Regarding `Cc1cc(CCC(=O)O)c(C)c(C)c1Cc1ccc(O)c(C2CCCCC2)n1` [Example 26, 3-{4-[(6-cyclohexyl-5-hydroxypyridin-2-yl)methyl]-2,3,5-trimethylphenyl}propanoic acid], in assay [1], the EC50 stood at 6 nM. Moreover, the “selectivity (TRα/TRβ)” value in assay [2] is listed as “C (2>(TRα/TRβ))”.

Consider `Cc1cc(OCC(=O)O)c(C)c(C)c1Cc1ccc(O)c(-c2cccc(F)c2)n1` [Example 171, {4-[6-(3-fluoro-phenyl)-5-hydroxy-pyridin-2-ylmethyl]-2,3,5-trimethyl-phenoxy}acetic acid], for which, in assay [1], the EC50 is 2 nM. Further, the “selectivity (TRα/TRβ)” value in assay [2] was “A (5<(TRα/TRβ))”.

`Cc1cc(OCc2noc(=O)[nH]2)c(C)c(C)c1Cc1ccc(O)c(C2CCCCC2)n1` [Example 34, 3-({4-[(6-cyclohexyl-5-hydroxypyridin-2-yl)methyl]-2,3,5-trimethylphenoxy}methyl)-1,2,4-oxadiazol-5(4H)-one]: the EC50 in assay [1] worked out at 0.4 nM. Besides, in assay [2], the “selectivity (TRα/TRβ)” value is “B (2<(TRα/TRβ)<5)”.

Take `Cc1cc(NC(=O)CC(=O)O)cc(C)c1Cc1ccc(O)c(C2CCCCC2)n1` [Example 23, 3-({4-[(6-cyclohexyl-5-hydroxypyridin-2-yl)methyl]-3,5-dimethylphenyl}amino)-3-oxopropanoic acid]: the EC50 in assay [1] stood at 10 nM. Moreover, the “selectivity (TRα/TRβ)” value in assay [2] was “A (5<(TRα/TRβ))”.

For `Cc1cc(NC(=O)CC(=O)O)c(F)c(C)c1Cc1ccc(O)c(C2CCCCCC2)n1` [Example 131, 3-({4-[(6-cycloheptyl-5-hydroxypyridin-2-yl)methyl]-2-fluoro-3,5-dimethylphenyl}amino)-3-oxopropanoic acid], in assay [1], the EC50 was determined as 4 nM. Moreover, the “selectivity (TRα/TRβ)” value in assay [2] is recorded as “A (5<(TRα/TRβ))”.

In the case of `Cc1cc(OCC(=O)O)cc(C)c1Cc1ccc(O)c(C(C)C)n1` [Example 1, {4-[(5-hydroxy-6-isopropylpyridin-2-yl)methyl]-3,5-dimethylphenoxy}acetic acid], the EC50 in assay [1] stood at 3 nM. Also, the “selectivity (TRα/TRβ)” value in assay [2] was “B (2<(TRα/TRβ)<5)”.

For the compound `Cc1cc(OCC(=O)O)c(C)c(C)c1Cc1ccc(O)c(C2CCCC2)n1` [Example 5, {4-[(6-cyclopentyl-5-hydroxypyridin-2-yl)methyl]-2,3,5-trimethylphenoxy}acetic acid], in assay [1], the EC50 came to 0.5 nM. Also, in assay [2], the “selectivity (TRα/TRβ)” value is recorded as “A (5<(TRα/TRβ))”.

`Cc1cc(OC(C)(C)C(=O)O)cc(C)c1Cc1ccc(O)c(C2CCCCC2)n1` [Example 16, 2-{4-[(6-cyclohexyl-5-hydroxypyridin-2-yl)methyl]-3,5-dimethylphenoxy}-2-methylpropanoic acid]: the EC50 in assay [1] was determined as 20 nM. Also, in assay [2], the “selectivity (TRα/TRβ)” value was “B (2<(TRα/TRβ)<5)”.
